Values quoted from earlier work in patent US8673347B2 (Creabilis Therapeutics S.p.A., priority 2005, dated 2014).

Columns and labels:
TrkA = TrkA (Homo sapiens, UniProt P04629); conditions: cited from earlier work
MLK3 = MLK3 (Homo sapiens, UniProt Q16584); conditions: cited from earlier work
Sequence of MLK3 (Q16584 whole entry, species assumed): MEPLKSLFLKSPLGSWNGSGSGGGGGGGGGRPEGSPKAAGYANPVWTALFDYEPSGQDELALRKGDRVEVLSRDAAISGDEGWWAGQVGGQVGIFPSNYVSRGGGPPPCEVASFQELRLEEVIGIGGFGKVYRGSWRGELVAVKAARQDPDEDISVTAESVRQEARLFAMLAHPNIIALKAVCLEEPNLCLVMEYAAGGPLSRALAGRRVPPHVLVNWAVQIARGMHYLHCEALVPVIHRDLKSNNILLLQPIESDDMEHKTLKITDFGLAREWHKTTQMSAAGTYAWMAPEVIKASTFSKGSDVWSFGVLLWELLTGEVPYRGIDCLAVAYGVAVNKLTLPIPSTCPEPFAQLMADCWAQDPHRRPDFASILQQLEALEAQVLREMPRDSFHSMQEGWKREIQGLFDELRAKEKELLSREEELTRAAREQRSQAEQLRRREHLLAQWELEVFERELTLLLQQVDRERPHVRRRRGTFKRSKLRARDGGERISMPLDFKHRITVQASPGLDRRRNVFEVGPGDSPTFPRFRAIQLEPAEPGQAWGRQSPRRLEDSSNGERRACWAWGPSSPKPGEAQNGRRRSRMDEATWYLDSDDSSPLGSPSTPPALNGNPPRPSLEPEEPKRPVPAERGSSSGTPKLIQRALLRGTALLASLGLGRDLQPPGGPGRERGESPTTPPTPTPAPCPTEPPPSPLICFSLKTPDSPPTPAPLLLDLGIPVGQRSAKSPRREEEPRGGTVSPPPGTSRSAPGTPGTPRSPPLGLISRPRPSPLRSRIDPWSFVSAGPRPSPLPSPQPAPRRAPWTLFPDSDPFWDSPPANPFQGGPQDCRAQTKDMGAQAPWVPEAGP

Sequence of TrkA (P04629 33-796, species assumed): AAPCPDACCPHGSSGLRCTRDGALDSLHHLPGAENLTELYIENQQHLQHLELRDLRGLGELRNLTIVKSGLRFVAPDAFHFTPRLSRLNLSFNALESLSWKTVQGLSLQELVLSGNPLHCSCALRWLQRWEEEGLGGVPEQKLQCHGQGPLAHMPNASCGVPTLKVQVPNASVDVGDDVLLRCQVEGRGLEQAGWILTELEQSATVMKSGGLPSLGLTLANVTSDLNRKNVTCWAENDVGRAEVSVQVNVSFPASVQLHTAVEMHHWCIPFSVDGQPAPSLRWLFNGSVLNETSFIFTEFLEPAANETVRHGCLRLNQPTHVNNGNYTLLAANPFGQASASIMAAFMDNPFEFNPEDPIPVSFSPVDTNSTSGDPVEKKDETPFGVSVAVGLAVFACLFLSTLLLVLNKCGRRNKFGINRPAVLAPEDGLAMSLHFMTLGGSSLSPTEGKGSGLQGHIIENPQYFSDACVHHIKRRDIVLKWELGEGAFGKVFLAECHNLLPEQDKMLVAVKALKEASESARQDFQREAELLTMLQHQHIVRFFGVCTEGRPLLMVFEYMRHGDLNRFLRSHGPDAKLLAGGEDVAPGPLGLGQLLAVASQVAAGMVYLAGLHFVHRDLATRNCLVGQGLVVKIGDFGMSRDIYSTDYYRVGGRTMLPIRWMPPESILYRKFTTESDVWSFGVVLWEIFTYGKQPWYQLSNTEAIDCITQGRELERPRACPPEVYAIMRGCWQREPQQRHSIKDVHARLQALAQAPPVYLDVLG

In the case of `CCSCc1ccc2c(c1)c1c3c(c4c5cc(CSCC)ccc5n5c4c1n2[C@H]1C[C@](O)(C(=O)OC)[C@]5(C)O1)CNC3=O` [CEP1347], the TrkA inhibition (TrkA) is given as “does not inhibit TrkA” and the “inhibition of MAPKKKs, including MLK3” value (MLK3) is given as “directly inhibit”.
